# Data taken from patent US5770575A, “Nipecotic acid derivatives as antithrombotic compounds” (Ortho Pharmaceutical Corporation, priority 1995, dated 1998).
# “Also recorded” adds a separate entry of the source.
# Legend:
# GPIIb/IIIa = target: T1, GPIIb/IIIa (Homo sapiens, UniProt P05106+P08514); assay: In vitro solid phase purified glycoprotein IIb/IIIa binding assay (biotinylated fibrinogen); conditions: Table I
# T1 sequence (P08514 32-887 limits assumed): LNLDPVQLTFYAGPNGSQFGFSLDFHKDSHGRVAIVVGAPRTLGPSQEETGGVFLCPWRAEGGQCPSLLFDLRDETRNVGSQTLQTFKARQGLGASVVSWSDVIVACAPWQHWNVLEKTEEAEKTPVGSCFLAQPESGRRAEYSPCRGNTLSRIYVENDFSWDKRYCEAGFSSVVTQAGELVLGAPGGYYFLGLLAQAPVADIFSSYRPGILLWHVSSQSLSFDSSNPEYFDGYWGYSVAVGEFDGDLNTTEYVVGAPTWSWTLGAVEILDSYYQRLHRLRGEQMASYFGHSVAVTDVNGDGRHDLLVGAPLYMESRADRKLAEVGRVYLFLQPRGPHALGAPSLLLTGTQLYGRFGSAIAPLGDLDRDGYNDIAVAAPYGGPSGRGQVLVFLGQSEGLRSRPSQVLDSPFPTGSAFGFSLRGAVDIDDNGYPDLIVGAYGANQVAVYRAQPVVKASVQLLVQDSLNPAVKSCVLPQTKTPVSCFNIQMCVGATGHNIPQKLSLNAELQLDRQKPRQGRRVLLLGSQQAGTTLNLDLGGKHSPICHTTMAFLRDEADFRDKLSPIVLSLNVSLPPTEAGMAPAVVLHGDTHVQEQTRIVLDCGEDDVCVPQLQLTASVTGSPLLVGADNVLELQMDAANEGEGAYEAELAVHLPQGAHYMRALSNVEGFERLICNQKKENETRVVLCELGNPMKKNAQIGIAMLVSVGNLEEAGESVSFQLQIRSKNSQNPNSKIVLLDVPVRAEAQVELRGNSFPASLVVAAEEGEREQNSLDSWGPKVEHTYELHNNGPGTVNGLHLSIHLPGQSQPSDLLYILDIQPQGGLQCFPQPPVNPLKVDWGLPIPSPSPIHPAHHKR
# T1 sequence (P05106 27-788): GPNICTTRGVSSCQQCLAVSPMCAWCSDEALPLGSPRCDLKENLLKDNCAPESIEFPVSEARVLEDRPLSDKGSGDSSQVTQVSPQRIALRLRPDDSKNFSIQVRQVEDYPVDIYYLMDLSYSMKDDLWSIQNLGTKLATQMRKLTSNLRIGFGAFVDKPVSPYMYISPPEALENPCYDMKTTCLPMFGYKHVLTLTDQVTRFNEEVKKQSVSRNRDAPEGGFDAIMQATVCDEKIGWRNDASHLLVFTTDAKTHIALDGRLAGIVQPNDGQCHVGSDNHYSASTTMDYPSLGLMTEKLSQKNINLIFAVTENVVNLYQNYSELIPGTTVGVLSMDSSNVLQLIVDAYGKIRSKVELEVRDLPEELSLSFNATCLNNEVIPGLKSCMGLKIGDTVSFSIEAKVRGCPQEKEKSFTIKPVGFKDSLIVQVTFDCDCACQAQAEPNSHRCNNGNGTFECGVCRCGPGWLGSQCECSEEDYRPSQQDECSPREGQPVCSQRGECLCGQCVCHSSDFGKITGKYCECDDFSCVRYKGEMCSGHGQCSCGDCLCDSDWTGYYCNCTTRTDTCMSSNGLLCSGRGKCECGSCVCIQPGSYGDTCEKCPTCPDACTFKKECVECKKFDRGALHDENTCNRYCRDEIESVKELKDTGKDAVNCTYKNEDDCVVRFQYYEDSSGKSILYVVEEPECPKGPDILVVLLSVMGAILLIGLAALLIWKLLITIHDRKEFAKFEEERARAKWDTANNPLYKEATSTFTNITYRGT
# Description: The compounds of the present invention interrupt binding of fibrinogen to platelet glycoprotein IIb/IIIa (GPIIb/IIIa) and thereby inhibit platelet aggregation. […] Because the final, common pathway in normal platelet aggregation is the binding of fibrinogen to activated, exposed GPIIb/IIIa, inhibition of this binding represents a plausible antithrombotic approach. The receptor is activated by stimuli such as ADP, collagen, and thrombin, exposing binding domains to two different peptide regions of fibrinogen: α-chain Arg-Gly-Asp (RGD) and γ-chain 400-411.
# IN VITRO SOLID PHASE PURIFIED GLYCOPROTEIN IIB/IIIA BINDING ASSAY.
# The plate is covered and incubated overnight at 4° C. The GPIIb/IIa solution is discarded and 150 μl of 5% BSA is added and incubated at RT for 1-3 h. The plate is washed extensively with modified Tyrodes buffer. Biotinylated fibrinogen (25 μl/well) at 2× final concentration is added to the wells that contain the test compounds (25 μl/well) at 2× final concentration. The plate is covered and incubated at RT for 2-4 h. Twenty minutes prior to incubation completion, one drop of Reagent A (Vecta Stain ABC Horse Radish Peroxidase kit, Vector Laboratories, Inc.) and one drop Reagent B are added with mixing to 5 mL modified Tyrodes buffer mix and let stand. The ligand solution is discarded and the plate washed (5×200 μl/well) with modified Tyrodes buffer. Vecta Stain HRP-Biotin-Avidin reagent (50 μl/well, as prepared above) is added and incubated at RT for 15 min. The Vecta Stain solution is discarded and the wells washed (5×200 μl/well) with modified Tyrodes buffer. […] The absorbance is read at 490 nm.
# gel-filtered platelets = assay: In vitro inhibition of thrombin-induced gel-filtered platelet aggregation assay; assay type: cell-based; conditions: *Indicates IC50, read-out: Pl. Aggr. IC50
# Experimental: IN VITRO INHIBITION OF THROMBIN-INDUCED GEL-FILTERED PLATELET AGGREGATION ASSAY.
# The percentage of platelet aggregation is calculated as an increase in light transmission of compound treated platelet concentrate vs. control treated platelet concentrate. Blood is obtained from drug free, normal donors into tubes containing 0.13M sodium citrate. Platelet rich plasma (PRP) is collected by centrifugation of whole blood at 200×g for 10 min at 25° C. The PRP (5 mL) is gel filtered through Sepharose 2B (bed volume 50 mL), and the platelet count is adjusted to 2×10^7platelets per sample. The following constituents are added to a siliconized cuvette: concentrated platelet filtrate and Tyrode's buffer (0.1 4M NaCl, 0.0027M KCl, 0.01 2M NaHCO3, 0.76 mM Na2 HPO4, 0.0055M glucose, 2 mg/mL BSA and 5.0 mM HEPES @ pH 7.4) in an amount equal to 350 μl, 50 μl of 20 mM calcium and 50 μl of the test compound. Aggregation is monitored in a BIODATA aggregometerforthe 3 min following the addition of agonist (thrombin 50 μl of 1 unit/mL).
# platelet aggregation = assay: Ex vivo dog study: platelet aggregation and ATP release in whole blood and PRP; design: species or system mongrel dogs
# Experimental: Adult mongrel dogs (8-13 kg) were anesthetized with sodium pentobarbital (35 mg/kg, i.v.) and artificially respired. Arterial blood pressure and heart rate were measured using a Millar catheter-tip pressure transducer inserted in a femoral artery. Another Millar transducer was placed in the left ventricle (LV) via a carotid artery to measure LV end diastolic pressure and indices of myocardial contractility. A lead II electrocardiogram was recorded from limb electrodes. Catheters were placed in a femoral artery and vein to sample blood and infuse drugs, respectively. Responses were continuously monitored using a Modular Instruments data aquisition system.
# (§1) Arterial blood samples (5-9 ml) were withdrawn into tubes containing 3.8% sodium citrate to prepare platelet rich plasma (PRP) and to determine effects on coagulation parameters: prothrombin time (PT) and activated partial thromboplastin time (APTT). Separate blood samples (1.5 ml) were withdrawn in EDTA to determine hematocrit and cell counts (platelets, RBC's and white cells). Template bleeding times were obtained from the buccal surface using a symplate incision devise and Whatman filter paper.
# (§2) Aggregation of PRP was performed using a BioData aggregometer. Aggregation of whole blood used a Chronolog impedance aggregometer. PT and APTT were determined on either a BioData or ACL 3000+ coagulation analyser. Cells were counted with a Sysmex K-1000.
# (§3) Compound 17 was solubilized in a small volume of dimethylformamide (DMF) and diluted with saline to a final concentration of 10% DMF. Compound 17 was administered by the intravenous route with a Harvard infusion pump. Doses of 0.3, 1, 3, and 10 mg/kg were given in a cumulative fashion to each animal. Each dose was administered over a 15 min interval at a constant rate of 0.33 ml/min. Data were obtained after each dose and 30 and 60 min following the end of drug administration.
# [1] = design: species or system mongrel dogs; conditions: dog, in vivo, iv
# Experimental: as §1, §2, §3
SMILES,IC50 (GPIIb/IIIa) [nM],IC50 (gel-filtered platelets) [nM],"platelet function began to recover (platelet aggregation; PRP and whole blood, post treatment) [min]","Gamma thrombin induced aggregation of PRP (platelet aggregation; PRP, doses of 3.0 mg/kg and above, iv)","collagen stimulated platelet aggregation, PRP (platelet aggregation; PRP, marked activity at 0.3 mg/kg iv)",duration of drug action / antiaggregatory effect (platelet aggregation; iv),"ex vivo platelet aggregation responses (platelet aggregation; iv, 0.3-10 mg/kg cumulative)","collagen stimulated platelet ATP release (platelet aggregation; whole blood, 10 mg/kg iv)","collagen-stimulated aggregation, whole blood (platelet aggregation; whole blood, doses of 0.3-10 mg/kg iv)",bleeding time at the higher doses [1],coagulation (PT or APTT) [1],"platelet, white and RBC counts [1]"
"NCCCCCC(=O)N1CCCC(C(=O)NCCC(=O)O)C1 (stereo not drawn) [Compound 5, N-(Nε- nocaroyl)-Nip-β-Ala-OH]",13,1600,,,,,,,,,,
"O=C(O)CCNC(=O)C1CCCN(C(=O)CCC2CCNCC2)C1 (stereo not drawn) [Compound 17, N-[3-(4-Piperidinepropionyl)]-Nip-β-Ala-OH]",3,130,30 to 60,inhibited at doses of 3.0 mg/kg and above,marked activity at 0.3 mg/kg,relatively short duration of drug action,marked inhibition of ex vivo platelet aggregation responses; also recorded: broadly effective inhibitor of platelet aggregation ex vivo,marked inhibition,inhibited,increases in bleeding time at the higher doses,No effects on coagulation,unchanged at any dose
